Assay [1] deals with RAC-beta serine/threonine-protein kinase (Homo sapiens) (UniProt P31751). In words: Percentage PKBbeta activity remaining in the presence of 0.01uM inhibitor.
Assay [2] addresses T1, Aurora kinase C (Homo sapiens) (UniProt Q9UQB9).
T1 sequence (whole entry): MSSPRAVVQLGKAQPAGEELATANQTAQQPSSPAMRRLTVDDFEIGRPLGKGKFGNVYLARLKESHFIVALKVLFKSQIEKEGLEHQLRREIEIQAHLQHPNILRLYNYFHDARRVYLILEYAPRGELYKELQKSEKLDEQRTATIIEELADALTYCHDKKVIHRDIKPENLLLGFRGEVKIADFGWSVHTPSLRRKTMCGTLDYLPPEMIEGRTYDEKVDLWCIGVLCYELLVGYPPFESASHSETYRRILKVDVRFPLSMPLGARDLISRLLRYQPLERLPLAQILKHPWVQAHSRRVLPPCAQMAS
Description: Percentage Aurora C activity remaining in the presence of 2uM inhibitor.

Assay [3] addresses T2, Dual specificity tyrosine-phosphorylation-regulated kinase 2 (Homo sapiens) (UniProt Q92630).
T2 sequence (whole entry): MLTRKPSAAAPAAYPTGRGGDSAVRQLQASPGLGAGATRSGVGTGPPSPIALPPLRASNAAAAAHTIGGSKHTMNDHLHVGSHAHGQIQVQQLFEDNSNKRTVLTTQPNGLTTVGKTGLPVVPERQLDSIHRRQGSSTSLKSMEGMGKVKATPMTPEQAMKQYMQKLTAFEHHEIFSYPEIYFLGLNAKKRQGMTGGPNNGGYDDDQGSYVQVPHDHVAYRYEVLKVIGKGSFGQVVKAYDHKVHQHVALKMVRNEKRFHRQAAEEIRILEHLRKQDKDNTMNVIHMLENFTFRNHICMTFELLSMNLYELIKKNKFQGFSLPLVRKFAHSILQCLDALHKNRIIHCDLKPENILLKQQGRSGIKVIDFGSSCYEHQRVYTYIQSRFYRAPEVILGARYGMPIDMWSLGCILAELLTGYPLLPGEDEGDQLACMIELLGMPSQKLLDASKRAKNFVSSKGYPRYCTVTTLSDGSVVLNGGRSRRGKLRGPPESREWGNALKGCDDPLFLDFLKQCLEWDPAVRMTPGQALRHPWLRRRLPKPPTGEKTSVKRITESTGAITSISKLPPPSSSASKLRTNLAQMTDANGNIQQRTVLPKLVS
Description: Percentage DYRK2 activity remaining in the presence of 2uM inhibitor.

Assay [4] deals with MAP kinase-activated protein kinase 2 (Homo sapiens) (UniProt P49137). In words: Percentage MAPKAPK2 activity remaining in the presence of 2uM inhibitor.
MAP kinase-activated protein kinase 2 (Homo sapiens), sequence (P49137 whole entry, looked up): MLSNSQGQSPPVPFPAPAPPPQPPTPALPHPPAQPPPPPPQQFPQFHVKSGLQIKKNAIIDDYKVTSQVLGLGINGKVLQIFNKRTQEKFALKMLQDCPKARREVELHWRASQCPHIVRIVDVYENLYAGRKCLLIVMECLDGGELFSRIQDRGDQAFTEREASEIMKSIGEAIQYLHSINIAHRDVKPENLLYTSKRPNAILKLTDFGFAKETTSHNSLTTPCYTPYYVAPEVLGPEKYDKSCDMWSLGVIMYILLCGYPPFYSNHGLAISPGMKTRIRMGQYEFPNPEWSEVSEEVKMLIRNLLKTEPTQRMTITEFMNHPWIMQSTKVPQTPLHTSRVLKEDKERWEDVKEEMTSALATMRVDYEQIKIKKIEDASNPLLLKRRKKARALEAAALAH
The target of assay [5] is RAC-beta serine/threonine-protein kinase (Homo sapiens) (UniProt P31751). Description: Percentage PKBbeta activity remaining in the presence of 2uM inhibitor.
For assay [6], the target named is T3, Dual specificity tyrosine-phosphorylation-regulated kinase 3 (Homo sapiens) (UniProt O43781).
T3 sequence (whole entry): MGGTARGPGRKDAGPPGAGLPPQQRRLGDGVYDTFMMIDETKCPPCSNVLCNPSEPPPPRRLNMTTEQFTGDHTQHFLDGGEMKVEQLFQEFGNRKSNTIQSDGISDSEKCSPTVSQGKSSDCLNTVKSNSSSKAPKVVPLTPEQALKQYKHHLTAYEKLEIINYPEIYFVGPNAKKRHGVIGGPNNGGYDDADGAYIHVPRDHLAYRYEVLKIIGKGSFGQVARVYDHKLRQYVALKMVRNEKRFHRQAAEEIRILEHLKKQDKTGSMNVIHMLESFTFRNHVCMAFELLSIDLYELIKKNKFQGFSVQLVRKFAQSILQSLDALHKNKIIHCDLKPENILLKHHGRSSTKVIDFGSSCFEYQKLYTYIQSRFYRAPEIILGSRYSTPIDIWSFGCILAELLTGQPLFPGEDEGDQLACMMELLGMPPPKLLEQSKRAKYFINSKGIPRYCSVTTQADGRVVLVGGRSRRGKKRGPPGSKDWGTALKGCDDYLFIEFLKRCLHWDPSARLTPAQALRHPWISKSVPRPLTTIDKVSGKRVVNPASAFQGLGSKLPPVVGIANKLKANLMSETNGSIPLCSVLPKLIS
In words: Percentage DYRK3 activity remaining in the presence of 2uM inhibitor.

Assay [7] deals with T4, Mitogen-activated protein kinase 15 (Homo sapiens) (UniProt Q8TD08).
T4 sequence (whole entry): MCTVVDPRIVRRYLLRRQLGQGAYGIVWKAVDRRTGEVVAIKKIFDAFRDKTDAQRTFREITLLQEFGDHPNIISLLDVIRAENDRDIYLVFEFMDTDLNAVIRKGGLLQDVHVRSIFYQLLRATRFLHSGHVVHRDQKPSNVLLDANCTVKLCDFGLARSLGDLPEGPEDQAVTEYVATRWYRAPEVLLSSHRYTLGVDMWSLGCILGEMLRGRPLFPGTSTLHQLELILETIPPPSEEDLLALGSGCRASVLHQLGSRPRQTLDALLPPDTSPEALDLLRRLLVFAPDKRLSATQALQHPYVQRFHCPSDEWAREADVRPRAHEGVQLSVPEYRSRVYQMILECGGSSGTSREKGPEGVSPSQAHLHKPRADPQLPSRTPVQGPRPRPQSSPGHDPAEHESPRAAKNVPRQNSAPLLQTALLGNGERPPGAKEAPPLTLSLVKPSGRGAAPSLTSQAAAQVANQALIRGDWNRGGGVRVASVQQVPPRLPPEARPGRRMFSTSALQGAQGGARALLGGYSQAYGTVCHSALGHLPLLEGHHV
Description: Percentage ERK8 activity remaining in the presence of 2uM inhibitor. The settings on record: filed as antagonist.

Assay [8] addresses Serine/threonine-protein kinase Nek6 (Homo sapiens) (UniProt Q9HC98). In words: Percentage NEK6 activity remaining in the presence of 3uM inhibitor.
The target in assay [9] is T1, Aurora kinase C (Homo sapiens). Description: Percentage Aurora C activity remaining in the presence of 3uM inhibitor.
Assay [10] has as its target Dual specificity tyrosine-phosphorylation-regulated kinase 1A (Homo sapiens) (UniProt Q13627). In words: Percentage DYRK1A activity remaining in the presence of 3uM inhibitor.
The target of assay [11] is MAP/microtubule affinity-regulating kinase 3 (Homo sapiens) (UniProt P27448). Description: Percentage MARK3 activity remaining in the presence of 3uM inhibitor.
MAP/microtubule affinity-regulating kinase 3 (Homo sapiens), sequence (P27448 whole entry, looked up): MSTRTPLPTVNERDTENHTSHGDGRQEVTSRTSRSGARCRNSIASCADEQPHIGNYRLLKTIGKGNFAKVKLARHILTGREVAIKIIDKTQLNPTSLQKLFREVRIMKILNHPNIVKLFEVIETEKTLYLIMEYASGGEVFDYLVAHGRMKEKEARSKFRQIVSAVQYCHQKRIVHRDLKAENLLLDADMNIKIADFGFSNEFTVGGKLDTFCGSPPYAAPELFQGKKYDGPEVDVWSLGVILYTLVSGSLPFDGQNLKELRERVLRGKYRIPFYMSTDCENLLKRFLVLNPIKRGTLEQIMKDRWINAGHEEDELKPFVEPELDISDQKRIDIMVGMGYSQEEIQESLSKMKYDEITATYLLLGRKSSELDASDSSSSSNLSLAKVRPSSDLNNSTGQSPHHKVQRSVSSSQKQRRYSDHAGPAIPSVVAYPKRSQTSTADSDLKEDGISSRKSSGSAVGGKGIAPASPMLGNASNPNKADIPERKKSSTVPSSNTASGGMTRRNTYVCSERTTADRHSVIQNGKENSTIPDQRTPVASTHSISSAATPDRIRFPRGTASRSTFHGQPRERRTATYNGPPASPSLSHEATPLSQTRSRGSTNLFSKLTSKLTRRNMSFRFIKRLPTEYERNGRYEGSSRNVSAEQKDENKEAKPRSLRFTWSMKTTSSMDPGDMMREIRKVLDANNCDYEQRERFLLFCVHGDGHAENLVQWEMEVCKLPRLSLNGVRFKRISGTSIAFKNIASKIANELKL
The target in assay [12] is cAMP-dependent protein kinase catalytic subunit alpha (Homo sapiens, UniProt P17612). In words: Percentage PKA activity remaining in the presence of 3uM inhibitor.
Assay [13] addresses Mitogen-activated protein kinase 9 (Homo sapiens, UniProt P45984). In words: Percentage JNK2 activity remaining in the presence of 3uM inhibitor.
In assay [14] the target is Serine/threonine-protein kinase Nek7 (Homo sapiens) (UniProt Q8TDX7). Description: Percentage NEK7 activity remaining in the presence of 3uM inhibitor.
Serine/threonine-protein kinase Nek7 (Homo sapiens), sequence (Q8TDX7 whole entry, looked up): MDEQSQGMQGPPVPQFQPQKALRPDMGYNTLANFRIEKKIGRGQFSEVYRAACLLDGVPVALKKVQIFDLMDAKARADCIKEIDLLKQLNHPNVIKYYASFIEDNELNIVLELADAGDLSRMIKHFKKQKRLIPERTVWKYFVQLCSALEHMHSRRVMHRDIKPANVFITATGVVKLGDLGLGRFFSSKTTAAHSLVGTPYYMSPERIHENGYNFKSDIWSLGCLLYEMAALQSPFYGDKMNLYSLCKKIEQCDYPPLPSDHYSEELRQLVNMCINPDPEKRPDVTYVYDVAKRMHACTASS
The target in assay [15] is Serine/threonine-protein kinase pim-1 (Homo sapiens, UniProt P11309). Description: Percentage PIM1 activity remaining in the presence of 3uM inhibitor.
Serine/threonine-protein kinase pim-1, sequence (P11309 whole entry, looked up): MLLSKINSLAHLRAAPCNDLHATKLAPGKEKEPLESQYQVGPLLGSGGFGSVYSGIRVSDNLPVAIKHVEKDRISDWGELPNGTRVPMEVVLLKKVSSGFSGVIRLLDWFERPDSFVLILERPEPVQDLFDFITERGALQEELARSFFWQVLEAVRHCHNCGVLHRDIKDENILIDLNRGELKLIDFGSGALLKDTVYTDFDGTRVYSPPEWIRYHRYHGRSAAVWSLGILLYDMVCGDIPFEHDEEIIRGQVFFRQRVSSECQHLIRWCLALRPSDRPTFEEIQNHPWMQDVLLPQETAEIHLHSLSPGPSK
For assay [16], the target named is Serine/threonine-protein kinase N2 (Homo sapiens) (UniProt Q16513). In words: Percentage PRK2 activity remaining in the presence of 3uM inhibitor.
Serine/threonine-protein kinase N2 (Homo sapiens), sequence (Q16513 whole entry, looked up): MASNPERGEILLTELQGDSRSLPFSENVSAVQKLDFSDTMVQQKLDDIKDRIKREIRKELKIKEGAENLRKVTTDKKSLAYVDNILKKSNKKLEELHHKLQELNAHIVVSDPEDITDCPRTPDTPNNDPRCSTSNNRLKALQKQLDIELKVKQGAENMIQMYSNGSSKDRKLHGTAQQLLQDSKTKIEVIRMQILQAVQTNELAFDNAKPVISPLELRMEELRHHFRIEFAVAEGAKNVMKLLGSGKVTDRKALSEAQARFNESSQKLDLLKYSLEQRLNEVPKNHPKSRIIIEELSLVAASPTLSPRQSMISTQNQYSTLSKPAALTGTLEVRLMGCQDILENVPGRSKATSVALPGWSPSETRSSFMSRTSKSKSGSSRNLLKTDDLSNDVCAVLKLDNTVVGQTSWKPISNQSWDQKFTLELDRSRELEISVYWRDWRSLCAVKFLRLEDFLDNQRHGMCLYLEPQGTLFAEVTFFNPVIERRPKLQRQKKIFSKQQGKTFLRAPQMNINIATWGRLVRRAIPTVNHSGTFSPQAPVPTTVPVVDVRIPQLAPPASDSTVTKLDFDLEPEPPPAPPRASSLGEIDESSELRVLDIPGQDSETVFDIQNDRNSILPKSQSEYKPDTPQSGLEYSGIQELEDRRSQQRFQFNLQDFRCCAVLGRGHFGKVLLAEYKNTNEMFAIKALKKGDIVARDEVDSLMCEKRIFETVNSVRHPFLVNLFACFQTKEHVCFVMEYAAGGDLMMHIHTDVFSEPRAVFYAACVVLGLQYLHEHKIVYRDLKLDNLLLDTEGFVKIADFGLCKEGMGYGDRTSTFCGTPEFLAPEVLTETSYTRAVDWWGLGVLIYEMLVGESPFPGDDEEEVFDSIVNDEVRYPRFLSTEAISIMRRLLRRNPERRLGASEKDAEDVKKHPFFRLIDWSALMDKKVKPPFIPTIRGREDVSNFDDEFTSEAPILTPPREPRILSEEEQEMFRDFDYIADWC
Assay [17] deals with Ribosomal protein S6 kinase alpha-1 (Homo sapiens) (UniProt Q15418). In words: Percentage RSK1 activity remaining in the presence of 3uM inhibitor.
Ribosomal protein S6 kinase alpha-1 (Homo sapiens), sequence (Q15418 whole entry): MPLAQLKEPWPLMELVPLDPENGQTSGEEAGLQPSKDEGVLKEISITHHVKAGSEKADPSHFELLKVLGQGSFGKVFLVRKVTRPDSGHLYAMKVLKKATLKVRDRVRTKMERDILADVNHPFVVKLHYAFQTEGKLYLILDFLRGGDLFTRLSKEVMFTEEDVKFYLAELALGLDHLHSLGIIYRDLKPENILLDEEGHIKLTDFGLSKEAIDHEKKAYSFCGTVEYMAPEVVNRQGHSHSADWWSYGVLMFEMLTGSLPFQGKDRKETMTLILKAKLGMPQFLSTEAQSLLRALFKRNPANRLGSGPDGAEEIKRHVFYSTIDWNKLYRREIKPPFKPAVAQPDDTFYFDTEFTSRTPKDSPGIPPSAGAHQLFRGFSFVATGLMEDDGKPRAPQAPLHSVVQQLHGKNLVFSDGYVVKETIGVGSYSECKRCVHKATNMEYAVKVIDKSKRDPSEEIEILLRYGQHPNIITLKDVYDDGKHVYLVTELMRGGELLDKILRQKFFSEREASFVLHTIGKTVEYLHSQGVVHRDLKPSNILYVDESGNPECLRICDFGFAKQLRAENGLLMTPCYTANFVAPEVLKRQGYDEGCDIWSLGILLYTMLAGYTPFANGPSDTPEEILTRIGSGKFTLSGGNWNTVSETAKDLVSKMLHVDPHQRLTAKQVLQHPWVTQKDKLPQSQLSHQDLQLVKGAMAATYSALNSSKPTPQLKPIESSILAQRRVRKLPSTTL

RAC-beta serine/threonine-protein kinase (Homo sapiens), sequence (P31751 whole entry): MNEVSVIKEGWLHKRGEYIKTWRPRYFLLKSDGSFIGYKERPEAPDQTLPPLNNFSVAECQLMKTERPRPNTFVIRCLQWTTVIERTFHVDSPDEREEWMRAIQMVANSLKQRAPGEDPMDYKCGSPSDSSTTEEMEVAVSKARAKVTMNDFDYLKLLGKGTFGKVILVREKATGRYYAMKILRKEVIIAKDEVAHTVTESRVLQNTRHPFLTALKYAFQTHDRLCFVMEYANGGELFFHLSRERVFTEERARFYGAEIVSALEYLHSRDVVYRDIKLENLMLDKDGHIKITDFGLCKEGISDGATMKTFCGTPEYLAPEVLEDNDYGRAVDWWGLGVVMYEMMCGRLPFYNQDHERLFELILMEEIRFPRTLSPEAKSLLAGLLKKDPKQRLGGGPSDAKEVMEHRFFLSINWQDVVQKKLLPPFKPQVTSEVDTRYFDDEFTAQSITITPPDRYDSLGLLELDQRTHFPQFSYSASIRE
Mitogen-activated protein kinase 9, sequence (P45984 whole entry, looked up): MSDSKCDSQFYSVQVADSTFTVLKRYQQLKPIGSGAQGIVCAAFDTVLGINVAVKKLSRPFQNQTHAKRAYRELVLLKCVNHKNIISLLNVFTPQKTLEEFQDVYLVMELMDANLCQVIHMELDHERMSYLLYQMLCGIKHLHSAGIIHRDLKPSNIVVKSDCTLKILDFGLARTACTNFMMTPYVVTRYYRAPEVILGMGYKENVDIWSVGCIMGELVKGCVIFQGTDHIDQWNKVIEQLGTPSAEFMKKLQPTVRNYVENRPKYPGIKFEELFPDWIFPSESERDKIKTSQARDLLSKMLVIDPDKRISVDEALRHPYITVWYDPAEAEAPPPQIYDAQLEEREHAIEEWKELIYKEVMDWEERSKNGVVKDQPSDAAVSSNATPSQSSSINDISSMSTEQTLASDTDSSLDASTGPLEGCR
Serine/threonine-protein kinase Nek6 (Homo sapiens), sequence (Q9HC98 whole entry): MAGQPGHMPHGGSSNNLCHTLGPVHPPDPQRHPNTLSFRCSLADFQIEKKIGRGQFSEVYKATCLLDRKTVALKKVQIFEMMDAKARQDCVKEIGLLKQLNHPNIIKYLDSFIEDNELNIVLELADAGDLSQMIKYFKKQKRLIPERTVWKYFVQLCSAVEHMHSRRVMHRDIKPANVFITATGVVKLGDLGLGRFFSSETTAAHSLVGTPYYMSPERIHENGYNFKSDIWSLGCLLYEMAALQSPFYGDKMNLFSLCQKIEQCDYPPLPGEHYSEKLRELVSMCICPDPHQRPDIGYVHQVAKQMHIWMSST

As to `CN[C@@H]1C[C@H]2O[C@@](C)([C@@H]1OC)n1c3ccccc3c3c4c(c5c6ccccc6n2c5c31)C(=O)N[C@H]4O` (stereo in doubt), the Activity in [1] amounted to 77%.

On to `Cn1cc(C2=C(c3ccc(Cl)cc3Cl)C(=O)NC2=O)c2ccccc21`, for which the Activity is 79% in [2]; 92% in [3]; 82% in assay [4]; 96% in assay [5]; 79% in assay [6]; 12% in assay [7].

Take `Cc1ccc(-c2c(C(=O)CF)n(CCCO)c3ncnc(N)c23)cc1`: the Activity in assay [8] came to 90%; in [9] it was 75%; in assay [10], 86%; in [11], 80%; in [12], 85%; in [13] it was 83%. The Activity turned out to be 92% in [14], 61% in [15], 83% in assay [16] and 92% in assay [17].
